From patent US7935724B2, “Thiophene and benzothiophene hydroxamic acid derivatives” (Merck HDAC Research, LLC, priority 2003, dated 2011)
Read-outs that look alike come from different tables or passages of the source.

Target: T1, histone deacetylase, subtype 1 (HDAC1) (Homo sapiens, UniProt Q13547)
T1 construct: Flag; made in house
Experiment: HDAC1-Flag assay (in vitro deacetylation assay)
Assay type: biochemical
Conditions: concentration for 50% inhibition of deacetylation, substrate at Km, unit inferred, text gives nm, read-out: HDAC Inhibition
Procedure: Novel compounds were tested for their ability to inhibit histone deacetylase, subtype 1 (HDAC1) using an in vitro deacetylation assay. The enzyme source for this assay was an epitope-tagged human HDAC1 complex immuno-purified from stably expressing mammalian cells. The substrate consisted of a commercial product containing an acetylated lysine side chain (BIOMOL Research Laboratories, Inc., Plymouth Meeting, Pa.). Upon deacetylation of the substrate by incubation with the purified HDAC1 complex, a fluorophore is produced that is directly proportional to the level of deacetylation.

[1] = Table 1, benzothiophene backbone

T1 sequence (Q13547 whole entry): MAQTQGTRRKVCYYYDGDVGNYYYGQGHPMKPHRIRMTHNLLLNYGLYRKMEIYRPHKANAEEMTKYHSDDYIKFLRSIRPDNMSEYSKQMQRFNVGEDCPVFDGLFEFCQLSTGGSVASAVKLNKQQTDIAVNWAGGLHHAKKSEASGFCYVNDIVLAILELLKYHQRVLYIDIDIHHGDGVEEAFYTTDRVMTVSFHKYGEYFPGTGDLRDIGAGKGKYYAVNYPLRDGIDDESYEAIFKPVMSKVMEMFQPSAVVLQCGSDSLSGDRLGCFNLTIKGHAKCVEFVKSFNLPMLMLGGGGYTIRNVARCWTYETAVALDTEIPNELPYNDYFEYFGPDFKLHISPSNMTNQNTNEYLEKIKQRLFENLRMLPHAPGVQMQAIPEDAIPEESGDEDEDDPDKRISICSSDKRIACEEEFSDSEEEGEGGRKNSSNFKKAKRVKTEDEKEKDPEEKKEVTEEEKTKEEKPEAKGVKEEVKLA

SMILES | IC50 [1] | IC50 (Table 2, thiophene backbone)
O=C(NO)c1cc2ccccc2s1 [Compound 1] | 0.672 ± 0.0989 µM | –
O=C(NO)c1cc2cc(C(F)(F)F)ccc2s1 [Compound 2] | 0.609 ± 0.0247 µM | –
O=C(Nc1ccc2sc(C(=O)NO)cc2c1)c1ccccc1 [Compound 3] | 0.106 ± 0.0134 µM | –
O=C(CCc1ccccc1)Nc1ccc2sc(C(=O)NO)cc2c1 [Compound 4] | 0.061 ± 0.0098 µM | –
O=C(Nc1ccc2cc(C(=O)NO)sc2c1)c1ccccc1 [Compound 5] | 0.204 ± 0.0487 µM | –
O=C(NCc1ccccc1)Nc1ccc2cc(C(=O)NO)sc2c1 [Compound 7] | 0.052 ± 0.0197 µM | –
CC(C)C(=O)Nc1ccc2cc(C(=O)NO)sc2c1 [Compound 9] | 0.156 ± 0.0332 µM | –
O=C(NO)c1cc2ccc(NS(=O)(=O)c3ccccc3)cc2s1 [Compound 10] | 0.0465 ± 0.0233 µM | –
O=C(NO)c1cc2ccc(NS(=O)(=O)Cc3ccccc3)cc2s1 [Compound 11] | 0.041 ± 0.0113 µM | –
O=C(NO)c1cc2ccc(NS(=O)(=O)c3ccc(-c4ccccc4)cc3)cc2s1 [Compound 12] | 0.045 ± 0.0325 µM | –
O=C(Cc1ccccc1)Nc1ccc2sc(C(=O)NO)cc2c1 [Compound 15] | 0.031 ± 0.007 µM | –
O=C(/C=C/c1ccccc1)Nc1ccc2sc(C(=O)NO)cc2c1 [Compound 16] | 0.185 ± 0.0523 µM | –
O=C(NO)c1cc2cc(NS(=O)(=O)c3ccc4ccccc4c3)ccc2s1 [Compound 17] | 0.0525 ± 0.0106 µM | –
O=C(NO)c1cc2cc(NS(=O)(=O)c3ccc(-c4ccccc4)cc3)ccc2s1 [Compound 18] | 0.091 ± 0.0494 µM | –
O=C(NO)c1cc2cc(NS(=O)(=O)Cc3ccccc3)ccc2s1 [Compound 19] | 0.119 ± 0.0219 µM | –
O=C(NO)c1cc2cc(N(Cc3ccccc3)Cc3ccccc3)ccc2s1 [Compound 20] | 1.65 ± 1.16 µM | –
O=C(NO)c1cc2cc(N(Cc3ccccc3)Cc3ccccc3)ccc2s1 [Compound 21] | 0.949 ± 0.834 µM | –
O=C(NO)c1cc2cc([N+](=O)O)ccc2s1 [Compound 22] | 1.74 ± 0.0636 µM | –
COC(=O)c1ccc2cc(C(=O)NO)sc2c1 [Compound 23] | 0.627 ± 0.0056 µM | –
O=C(NO)C(=O)Nc1ccc2cc(C(=O)NO)sc2c1 [Compound 24] | 1.17 ± 0.214 µM | –
O=C(NO)c1cc2cc(NS(=O)(=O)c3ccccc3)ccc2s1 [Compound 26] | 0.166 ± 0.0226 µM | –
O=C(NO)c1cc2cc(NS(=O)(=O)c3cccc4ccccc34)ccc2s1 [Compound 27] | 0.102 ± 0.024 µM | –
O=C(Nc1ccc2cc(C(=O)NO)sc2c1)c1cccnc1 [Compound 29] | 0.262 ± 0.0339 µM | –

SMILES | IC50 [1] | IC50 (Table 2, thiophene backbone)
O=C(Nc1ccc2cc(C(=O)NO)sc2c1)OCc1ccccc1 [Compound 30] | 0.113 ± 0.0332 µM | –
CCOC(=O)Nc1ccc2cc(C(=O)NO)sc2c1 [Compound 31] | 0.35 ± 0.0134 µM | –
O=C(NCCc1ccccc1)Nc1ccc2cc(C(=O)NO)sc2c1 [Compound 32] | 0.0885 ± 0.0332 µM | –
CCOC(=O)Nc1ccc2sc(C(=O)NO)cc2c1 [Compound 34] | 0.238 ± 0.0028 µM | –
CC(C)C(=O)Nc1ccc2sc(C(=O)NO)cc2c1 [Compound 35] | 0.149 ± 0.0233 µM | –
O=C(Nc1ccc2sc(C(=O)NO)cc2c1)c1cccnc1 [Compound 37] | 0.157 µM | –
O=C(Nc1ccc2sc(C(=O)NO)cc2c1)c1ccc2ccccc2n1 [Compound 38] | 0.444 µM | –
O=C(NCc1ccccc1)Nc1ccc2sc(C(=O)NO)cc2c1 [Compound 40] | 0.072 µM | –
O=C(Nc1ccc2sc(C(=O)NO)cc2c1)c1ccc2ccccc2c1 [Compound 41] | 0.413 µM | –
O=C(NO)c1ccc2sc(C(=O)NO)cc2c1 [Compound 42] | 0.424 µM | –
Cc1ccc(S(=O)(=O)Nc2ccc3cc(C(=O)NO)sc3c2)cc1 [Compound 43] | 0.0605 ± 0.0021 µM | –
Cc1ccc(S(=O)(=O)Nc2ccc3sc(C(=O)NO)cc3c2)cc1 [Compound 44] | 0.163 ± 0.0544 µM | –
COC(=O)c1ccc2sc(C(=O)NO)cc2c1 [Compound 45] | 0.737 ± 0.143 µM | –
O=C(CN1CCN(c2ccccc2)CC1)Nc1ccc2cc(C(=O)NO)sc2c1 [Compound 46] | 0.037 µM | –
O=C(CN1CCc2ccccc2C1)Nc1ccc2cc(C(=O)NO)sc2c1 [Compound 47] | 0.024 µM | –
COc1ccc(C(=O)Nc2ccc3cc(C(=O)NO)sc3c2)cc1OC [Compound 48] | 0.28 µM | –
COc1ccc(CC(=O)Nc2ccc3cc(C(=O)NO)sc3c2)cc1OC [Compound 49] | 0.035 µM | –
O=C(Cc1cccc(F)c1)Nc1ccc2cc(C(=O)NO)sc2c1 [Compound 50] | 0.014 µM | –
COc1ccc(OC)c(CC(=O)Nc2ccc3cc(C(=O)NO)sc3c2)c1 [Compound 51] | 0.062 µM | –
COc1ccccc1CC(=O)Nc1ccc2cc(C(=O)NO)sc2c1 [Compound 52] | 0.02 µM | –
COc1cccc(CC(=O)Nc2ccc3sc(C(=O)NO)cc3c2)c1 [Compound 53] | 0.054 µM | –
O=C(NO)c1ccc(-c2ccccc2)s1 [Compound 54] | – | 0.219 µM
COc1cccc(-c2ccc(C(=O)NO)s2)c1 [Compound 55] | – | 0.445 ± 0.0544 µM

SMILES | IC50 [1] | IC50 (Table 2, thiophene backbone)
O=C(Nc1ccc(C(=O)NO)s1)c1ccccc1 [Compound 56] | – | 0.714 ± 0.122 µM
O=C(NO)c1ccc(NC(=O)c2cccc3ccccc23)s1 [Compound 57] | – | 0.363 ± 0.0169 µM
O=C(Nc1ccc(C(=O)NO)s1)c1ccc2ccccc2c1 [Compound 58] | – | 0.73 ± 0.127 µM
O=C(NCc1ccccc1)c1ccc(-c2ccc(C(=O)NO)s2)cc1 [Compound 60] | – | 0.464 ± 0.065 µM
O=C(NO)c1ccc(-c2cccc(CN(Cc3ccccc3)Cc3ccccc3)c2)s1 [Compound 61] | – | 1 µM
O=C(NO)c1ccc(-c2cccc(CN(CCc3ccccc3)Cc3ccccc3)c2)s1 [Compound 62] | – | 0.933 ± 0.0226 µM
O=C(/C=C/c1ccc(C(=O)NO)s1)Nc1ccccc1 [Compound 63] | – | 0.397 µM
O=C(/C=C/c1ccc(C(=O)NO)s1)NCc1ccccc1 [Compound 64] | – | 0.206 µM
O=C(/C=C/c1ccc(C(=O)NO)s1)NCCc1ccccc1 [Compound 65] | – | 0.041 µM
O=C(/C=C/c1ccc(C(=O)NO)s1)NCCCc1ccccc1 [Compound 66] | – | 0.07 µM
O=C(/C=C/c1ccc(C(=O)NO)s1)NCC1CCCCC1 [Compound 67] | – | 0.12 µM
O=C(NO)c1ccc(-c2cccc(CN3CCc4ccccc4C3)c2)s1 [Compound 68] | – | 0.417 µM
O=C(NO)c1ccc(-c2cccc(CN3CCN(c4ccccc4)CC3)c2)s1 [Compound 69] | – | 0.174 µM
O=C(NO)c1ccc(-c2cccc(CN(Cc3ccccc3)Cc3cnc4ccccc4c3)c2)s1 [Compound 70] | – | 0.399 µM
O=C(NO)c1ccc(-c2cccc(CN(Cc3ccccc3)Cc3ccnc4ccccc34)c2)s1 [Compound 71] | – | 0.461 µM
O=C(NO)c1ccc(-c2cccc(CN(CCc3ccccc3)Cc3cnc4ccccc4c3)c2)s1 [Compound 72] | – | 0.57 µM
O=C(NO)c1ccc(-c2cccc(CN(CCc3ccccc3)Cc3ccnc4ccccc34)c2)s1 [Compound 73] | – | 0.705 ± 0.0926 µM
O=C(NO)c1ccc(-c2cccc(CN(CCCc3ccccc3)Cc3cnc4ccccc4c3)c2)s1 [Compound 74] | – | 0.461 µM
O=C(NO)c1ccc(-c2cccc(CN(CCCc3ccccc3)Cc3ccnc4ccccc34)c2)s1 [Compound 75] | – | 0.92 ± 0.569 µM
O=C(NO)c1ccc(-c2cccc(CN(CCCc3ccccc3)Cc3ccccc3)c2)s1 [Compound 76] | – | 1.01 µM
O=C(/C=C/c1ccc(C(=O)NO)s1)NC1CCCCC1 [Compound 79] | – | 0.666 µM
O=C(CCc1ccc(C(=O)NO)s1)Nc1ccccc1 [Compound 80] | – | 0.481 µM
O=C(CCc1ccc(C(=O)NO)s1)NCCc1ccccc1 [Compound 81] | – | 0.69 µM

SMILES | IC50 [1] | IC50 (Table 2, thiophene backbone)
O=C(CCc1ccc(C(=O)NO)s1)NCCCc1ccccc1 [Compound 82] | – | 0.526 µM
O=C(CCc1ccc(C(=O)NO)s1)NCC(c1ccccc1)c1ccccc1 [Compound 83] | – | 0.581 µM
O=C(Cc1ccc(F)cc1)Nc1ccc2sc(C(=O)NO)cc2c1 [Compound 84] | 0.0565 ± 0.0162 µM | –
COc1ccc(CC(=O)Nc2ccc3sc(C(=O)NO)cc3c2)cc1OC [Compound 85] | 0.076 ± 0.0155 µM | –
COc1ccc(OC)c(CC(=O)Nc2ccc3sc(C(=O)NO)cc3c2)c1 [Compound 87] | 0.111 ± 0.0233 µM | –
O=C(NCc1ccccc1)c1ccc2cc(C(=O)NO)sc2c1 [Compound 92] | 0.053 ± 0.007 µM | –
O=C(NCc1ccccn1)c1ccc2cc(C(=O)NO)sc2c1 [Compound 94] | 0.0857 ± 0.0235 µM | –
O=C(Cc1ccc(Cl)cc1)Nc1ccc2sc(C(=O)NO)cc2c1 [Compound 95] | 0.0795 ± 0.0332 µM | –
COc1ccc(CC(=O)Nc2ccc3sc(C(=O)NO)cc3c2)cc1 [Compound 96] | 0.083 ± 0.0212 µM | –
CN(O)C(=O)c1cc2ccc(NC(=O)Cc3ccccc3)cc2s1 [Compound 102] | 14.4 µM | –
Nc1ccccc1NC(=O)c1cc2ccccc2s1 [Compound 103] | 1.82 ± 0.508 µM | –
O=C(Nc1ccccc1)c1ccc2sc(C(=O)NO)cc2c1 [Compound 104] | 0.582 ± 0.0098 µM | –
O=C(NCCc1ccccc1)c1ccc2sc(C(=O)NO)cc2c1 [Compound 105] | 0.155 ± 0.0134 µM | –
O=C(Cc1ccccn1)Nc1ccc2cc(C(=O)NO)sc2c1 [Compound 109] | 0.059 ± 0.0155 µM | –
O=C(NCc1ccccc1)c1ccc2sc(C(=O)NO)cc2c1 [Compound 111] | 0.076 ± 0.0212 µM | –
O=C(NCCCc1ccccc1)c1ccc2sc(C(=O)NO)cc2c1 [Compound 112] | 0.0745 ± 0.0077 µM | –
CN(O)C(=O)c1cc2ccc(N(C)C(=O)Cc3ccccc3)cc2s1 [Compound 113] | 30.775 ± 0.007 µM | –
CC(=O)N1CCN(CC(=O)Nc2ccc3cc(C(=O)NO)sc3c2)CC1 [Compound 114] | 0.15 ± 0.0127 µM | –
O=C(CN1CCOCC1)Nc1ccc2cc(C(=O)NO)sc2c1 [Compound 116] | 0.084 ± 0.0056 µM | –
O=C(CN(CCc1ccccc1)Cc1ccccc1)Nc1ccc2cc(C(=O)NO)sc2c1 [Compound 117] | 0.206 ± 0.0509 µM | –
CC(C)(C)OC(=O)CN(CC(=O)Nc1ccc2cc(C(=O)NO)sc2c1)CC(=O)OC(C)(C)C [Compound 118] | 0.236 ± 0.0289 µM | –
O=C(CN1CCN(c2cccc(Cl)c2)CC1)Nc1ccc2cc(C(=O)NO)sc2c1 [Compound 120] | 0.097 ± 0.021 µM | –
